The values below come from ChEMBL document CHEMBL5390287, “Discovery of a Tritiated Radioligand with High Affinity and Selectivity for the Histamine H3 Receptor” (ACS Med Chem Lett, 2023).

Assay [1] deals with T1, Histamine H3 receptor (Homo sapiens, UniProt Q9Y5N1). Description: Displacement of [3H]UR-MN259 from SP-FLAG tagged human histamine H3 receptor expressed in HEK293T cells assessed as inhibition constant incubated for 60 min by scintillation counter analysis. The format is cell-based.
For the next assay, the target named is Histamine H4 receptor (Homo sapiens, UniProt Q9H3N8). The assay is described as follows: Displacement of [3H]histamine from SP-FLAG tagged human histamine H4 receptor expressed in HEK293T cells assessed as inhibition constant incubated for 60 min by scintillation counter analysis. The format is cell-based. (In general: In a radioligand displacement assay an active substance lowers the binding of a labelled ligand.)

Assay [2] concerns the target T1, Histamine H3 receptor. Description: Antagonist activity at human histamine H3 receptor in HEK293T cells expressing H3R-NlucC/NlucN-mGsi construct using furimazine as substrate assessed as displacement of histamine by MiniG recruitment assay. The format is functional, cell-based. The following applies: filed as antagonist.
For assay [3], the species on record is Homo sapiens. Description: Selectivity ratio of Ki for human histamine H1 receptor to Ki for human histamine H3 receptor.
In assay [4] the target is T1, Histamine H3 receptor. Description: Binding affinity to SP-FLAG tagged human histamine H3 receptor expressed in HEK293T cells assessed as dissociation rate constant incubated for 30 mins by scintillation counting analysis. The format is cell-based. The following applies: tested as the 3H-labelled form.
Another assay has as its target Histamine H2 receptor (Homo sapiens, UniProt P25021). The assay is described as follows: Displacement of [3H]UR-KAT479 from SP-FLAG tagged human histamine H2 receptor expressed in HEK293T cells assessed as inhibition constant incubated for 60 min by scintillation counter analysis. The format is cell-based.
The target of assay [5] is T1, Histamine H3 receptor. Description: Binding affinity to SP-FLAG tagged human histamine H3 receptor expressed in HEK293T cells assessed as association rate constant incubated for 60 mins by scintillation counting analysis. The format is cell-based. The following applies: tested as the 3H-labelled form.
Assay [6] concerns the target T1, Histamine H3 receptor. Description: Binding affinity to SP-FLAG tagged human histamine H3 receptor expressed in HEK293T cells assessed as association time constant incubated for 60 mins by scintillation counting analysis. The settings on record: tested as the 3H-labelled form. The format is cell-based.
In assay [7] the target is T1, Histamine H3 receptor. Description: Displacement of UR-NR266 from NLuc-tagged human histamine H3 receptor expressed in HEK293T cells assessed as inhibition constant incubated for 5 mins followed by UR-NR266 addition by furimazine based NanoBRET competition binding assay. The format is cell-based.
In assay [8] the target is T1, Histamine H3 receptor. The assay is described as follows: Binding affinity to SP-FLAG tagged human histamine H3 receptor expressed in HEK293T cells assessed as maximum binding. The following applies: tested as the 3H-labelled form. The format is cell-based.
For assay [9], the species on record is Homo sapiens. The assay is described as follows: Selectivity ratio of Ki for human histamine H4 receptor to Ki for human histamine H3 receptor.
Another assay concerns the target Histamine H1 receptor (Homo sapiens, UniProt P35367). The assay is described as follows: Displacement of [3H]mepyramine from SP-FLAG tagged human histamine H1 receptor expressed in HEK293T cells assessed as inhibition constant incubated for 60 min by scintillation counter analysis. The format is cell-based.
In assay [10] the target is T1, Histamine H3 receptor. Description: Binding affinity to SP-FLAG tagged human histamine H3 receptor expressed in HEK293T cells using sodium containing Leibovitz's L-15 medium incubated for 60 min by scintillation counter analysis. The format is cell-based.
The species named for assay [11] is Homo sapiens. The assay is described as follows: Selectivity ratio of Ki for human histamine H2 receptor to Ki for human histamine H3 receptor.
The target in assay [12] is T1, Histamine H3 receptor. The assay is described as follows: Binding affinity to SP-FLAG tagged human histamine H3 receptor expressed in HEK293T cells assessed as dissociation time constant incubated for 30 mins by scintillation counting analysis. The format is cell-based. The following applies: tested as the 3H-labelled form.
For assay [13], the target named is T1, Histamine H3 receptor. The assay is described as follows: Binding affinity to SP-FLAG tagged human histamine H3 receptor expressed in HEK293T cells. The format is cell-based. The following applies: tested as the 3H-labelled form.
The target of assay [14] is T1, Histamine H3 receptor. The assay is described as follows: Agonist activity at human histamine H3 receptor in HEK293T cells expressing H3R-NlucC/NlucN-mGsi construct using furimazine as substrate upto 10 uM by MiniG recruitment assay. The format is functional, cell-based.
Assay [15] concerns the target T1, Histamine H3 receptor. The assay is described as follows: Binding affinity to SP-FLAG tagged human histamine H3 receptor expressed in HEK293T cells assessed as kinetic dissociation constant incubated for 30 mins by scintillation counting analysis. The format is cell-based.
Assay [16] deals with T1, Histamine H3 receptor. The assay is described as follows: Binding affinity to SP-FLAG tagged human histamine H3 receptor expressed in HEK293T cells assessed as dissociation constant by incubated for 30 mins by scintillation counting analysis. The format is cell-based.

Calls of active or inactive are those of the source. The calls are words filed in the database; no cut-off is given here.

T1 sequence (Q9Y5N1 whole entry): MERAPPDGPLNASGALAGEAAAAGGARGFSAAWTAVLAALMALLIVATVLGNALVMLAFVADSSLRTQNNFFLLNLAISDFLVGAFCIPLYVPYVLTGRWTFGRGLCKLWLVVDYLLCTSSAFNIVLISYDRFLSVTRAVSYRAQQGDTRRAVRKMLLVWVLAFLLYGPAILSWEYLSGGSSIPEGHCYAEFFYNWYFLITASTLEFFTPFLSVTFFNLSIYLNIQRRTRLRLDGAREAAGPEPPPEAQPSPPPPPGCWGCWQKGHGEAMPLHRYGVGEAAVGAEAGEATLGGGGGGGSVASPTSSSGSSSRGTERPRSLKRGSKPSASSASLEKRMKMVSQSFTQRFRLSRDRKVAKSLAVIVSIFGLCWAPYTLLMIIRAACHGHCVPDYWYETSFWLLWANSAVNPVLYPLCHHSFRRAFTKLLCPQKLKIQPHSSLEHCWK
Histamine H4 receptor, sequence (Q9H3N8 whole entry): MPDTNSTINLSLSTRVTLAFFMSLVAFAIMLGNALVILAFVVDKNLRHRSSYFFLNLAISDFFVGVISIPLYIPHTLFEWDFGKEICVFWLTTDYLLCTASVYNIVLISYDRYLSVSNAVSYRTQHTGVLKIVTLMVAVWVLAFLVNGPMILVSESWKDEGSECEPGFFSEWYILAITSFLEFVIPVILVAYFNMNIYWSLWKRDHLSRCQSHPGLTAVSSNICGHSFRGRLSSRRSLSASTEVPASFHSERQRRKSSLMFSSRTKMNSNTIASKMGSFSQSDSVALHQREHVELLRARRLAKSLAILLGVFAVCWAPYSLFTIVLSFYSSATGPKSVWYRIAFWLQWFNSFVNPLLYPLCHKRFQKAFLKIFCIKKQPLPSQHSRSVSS
Histamine H2 receptor, sequence (P25021 whole entry): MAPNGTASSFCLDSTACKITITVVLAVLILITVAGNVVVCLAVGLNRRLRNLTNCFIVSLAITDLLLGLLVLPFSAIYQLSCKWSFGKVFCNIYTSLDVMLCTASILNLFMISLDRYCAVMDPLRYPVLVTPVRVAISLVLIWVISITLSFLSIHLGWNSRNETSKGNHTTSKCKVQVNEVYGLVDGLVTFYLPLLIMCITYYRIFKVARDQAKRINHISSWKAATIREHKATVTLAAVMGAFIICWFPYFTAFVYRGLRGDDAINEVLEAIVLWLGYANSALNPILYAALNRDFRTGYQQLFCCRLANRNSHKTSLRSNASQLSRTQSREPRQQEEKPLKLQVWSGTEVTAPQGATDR
Histamine H1 receptor, sequence (P35367 whole entry): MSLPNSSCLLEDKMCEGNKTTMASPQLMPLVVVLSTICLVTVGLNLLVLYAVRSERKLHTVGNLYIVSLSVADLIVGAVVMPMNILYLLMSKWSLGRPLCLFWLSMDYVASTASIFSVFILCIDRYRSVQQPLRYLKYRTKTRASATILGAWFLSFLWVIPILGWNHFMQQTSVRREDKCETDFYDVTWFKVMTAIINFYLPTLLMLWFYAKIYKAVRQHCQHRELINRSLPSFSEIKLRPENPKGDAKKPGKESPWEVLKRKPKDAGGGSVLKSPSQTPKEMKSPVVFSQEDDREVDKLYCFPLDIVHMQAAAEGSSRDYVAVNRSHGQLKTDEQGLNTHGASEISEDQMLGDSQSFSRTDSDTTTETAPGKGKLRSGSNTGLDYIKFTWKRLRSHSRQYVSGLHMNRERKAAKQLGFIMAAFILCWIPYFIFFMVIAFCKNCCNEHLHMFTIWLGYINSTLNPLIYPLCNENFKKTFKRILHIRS

A word on the Ki: it is the dissociation constant of the complex between target and ligand, obtained from inhibition or displacement. Usually pKb stands for the negative decadic logarithm of the Kb, by convention in mol/L. For the compound `CCC(=O)NC1CCN(Cc2ccc(OCCCN3CCCCC3)cc2)CC1`, the inhibitory constant (Ki) at Histamine H3 receptor [1] was 0.282 nM; on Histamine H4 receptor it was greater than 100000 nM; at Histamine H2 receptor, greater than 100000 nM; at Histamine H3 receptor [7], 0.275 nM; on Histamine H1 receptor, greater than 100000 nM; on Histamine H3 receptor [10], 0.288 nM. The pKb at Histamine H3 receptor [2] is 9.39. For the same compound, the Ratio Ki in the assay listed under Homo sapiens [3], in the assay filed under Homo sapiens [9] and in the assay listed under Homo sapiens [11] was greater than 100 each time. The K at Histamine H3 receptor [4] turned out to be 0.07 min⁻¹; at Histamine H3 receptor [5], 3.67e+06 M⁻¹ s⁻¹. In addition, the TIME on Histamine H3 receptor [6] was found to be 0.102 h; at Histamine H3 receptor [12], 0.241 h. The Bmax (disintegrations/minute) at Histamine H3 receptor [8] worked out at 1670. Moreover, on Histamine H3 receptor [13], the Kobs amounted to 0.18 min⁻¹. At Histamine H3 receptor [14], the outcome was inactive.

The Kd is the concentration at which binding is half-saturated. Consider `[3H]C([3H])([3H])C([3H])([3H])C(=O)NC1CCN(Cc2ccc(OCCCN3CCCCC3)cc2)CC1`, for which the Kd was 0.324 nM on Histamine H3 receptor [15], 0.562 nM at Histamine H3 receptor [16] and 0.513 nM on Histamine H3 receptor [10].

`N=C(N)SCCc1cnc[nH]1` [IMETIT]: the Ki at Histamine H3 receptor [1] is 5.75 nM; at Histamine H3 receptor [10] it was 28.2 nM.
